# Like-named read-outs stand apart in the source and are kept apart here.
# Legend:
# [1] = Solubility in water (phosphate buffer, UV absorbance); settings: for solubility at 20 h: pH 6.8, aqueous buffer, thermodynamic from solid
# [2] = test system: Snake venom phosphodiesterase; assay: Activity of snake venom phosphodiesterase against nucleotide analogs; settings: pH 9.2, 37° C., 8 h
# [3] = test system: herpes simplex type 1 virus (HSV-1) (KOS); assay: Inhibition of HSV-1 cytopathogenicity in Vero cell culture; assay type: cell-based; settings: for IC50: Human alphaherpesvirus 1, Vero, read-out: IC50 HSV-1 (KOS)
# [4] = test system: thymidine kinase-deficient (TK−) varicella-zoster virus (YS/R); assay: microbe, parasite or virus in culture; assay type: cell-based; settings: for IC50: Human alphaherpesvirus 3, Vero, read-out: IC50 TK−VZV (YS/R)
# HIV-1 (IIIB) = assay: microbe, parasite or virus in culture; assay type: cell-based; settings: Human immunodeficiency virus 1, IIIB
# [5] = Lipophilicity, 1-octanol/water partition coefficient
# [6] = target: T1, calf mucosal adenosine deaminase (ADA, EC 3.5.4.4) (Bos taurus, UniProt P56658); assay: Substrate activity and competitive inhibition of adenosine deaminase; assay type: biochemical; settings: for rel. Vmax: compound as ADA substrate, relative to ara A 3 = 1.0
# T1 sequence (P56658 1-363): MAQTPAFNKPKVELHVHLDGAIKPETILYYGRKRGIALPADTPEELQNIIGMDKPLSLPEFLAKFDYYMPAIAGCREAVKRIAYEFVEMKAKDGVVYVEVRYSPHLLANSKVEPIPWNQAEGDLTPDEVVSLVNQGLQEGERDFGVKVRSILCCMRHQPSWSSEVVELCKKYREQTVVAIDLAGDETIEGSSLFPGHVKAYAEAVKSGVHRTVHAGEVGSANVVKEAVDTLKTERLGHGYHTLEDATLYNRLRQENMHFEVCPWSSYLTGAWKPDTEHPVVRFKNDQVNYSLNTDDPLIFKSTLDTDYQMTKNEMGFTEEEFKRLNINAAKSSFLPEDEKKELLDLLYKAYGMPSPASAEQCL
# HSV-1 (KOS) = assay: Anti-HSV-1 activity in vivo, HSV-1-induced mortality in NMRI mice; settings: 6 days; for mean day of animal death / mean day of symptom initiation: terminated day 21; for responders at 100 mg/kg / responders at 150 mg/kg / responders at 250 mg/kg: Human alphaherpesvirus 1, ip, 504 h
# [7] = test system: human cytomegalovirus (AD-169); assay: Inhibition of HCMV cytopathogenicity in Vero cell culture; assay type: cell-based; settings: for IC50: read-out: IC50 HCMV (AD-169)
# [8] = test system: moloney murine sarcoma virus (MSV); assay: Inhibition of MSV cytopathogenicity in CEM cells (cell-protection assay); assay type: cell-based; settings: Moloney murine sarcoma virus, CCRF-CEM, read-out: IC50 MSV
# HIV-2 (LAV-2) = assay: Inhibition of HIV-2 cytopathogenicity in MT4 cells; assay type: cell-based, human immunodeficiency virus
# MSV = settings: for mean day of animal death / percentage of MSV-infected mice alive at day 21 postinfection / percentage of MSV-infected mice without tumors at day 21 postinfection: two injections; for mean day of tumor initiation: two injections within two days
# CEM cells = assay: Toxicity toward CEM cells
# MT4 cells = assay: Toxicity toward MT4 cells
# [9] = test system: thymidine kinase-positive (TK+) varicella-zoster virus (YS); assay: Inhibition of TK+ VZV cytopathogenicity in Vero cell culture; assay type: cell-based
# [10] = LD50 and toxicity in mice, intraperitoneal
# [11] = test system: herpes simplex type 2 virus (HSV-2) (G); assay: Inhibition of HSV-2 cytopathogenicity in Vero cell culture; assay type: cell-based; settings: 50% inhibition of cytopathogenicity, for 1:1 mixtures IC50 refers to known antiviral drugs
# [12] = test system: Vero cell thymidine kinase; assay: Phosphorylation of nucleosides by Vero cell thymidine kinase; assay type: biochemical
# HSV thymidine kinase = HSV thymidine kinase (Human herpesvirus 1, UniProt P0DTH5); assay: Phosphorylation of nucleosides by HSV thymidine kinase; assay type: biochemical
# [13] = 100 mg/kg/day i.p., read-out: percentage of HSV-1-infected mice alive at day 21 postinfection
# [14] = 100 mg/kg/day i.p., read-out: percentage of HSV-1-infected mice without symptoms at day 21 postinfection
# [15] = 150 mg/kg/day i.p., read-out: percentage of HSV-1-infected mice alive at day 21 postinfection
# [16] = 150 mg/kg/day i.p., read-out: percentage of HSV-1-infected mice without symptoms at day 21 postinfection
# [17] = 250 mg/kg/day i.p., read-out: percentage of HSV-1-infected mice alive at day 21 postinfection
# [18] = 250 mg/kg/day i.p., read-out: percentage of HSV-1-infected mice without symptoms at day 21 postinfection
# [19] = Vero cell culture, 50% inhibition of cytopathogenicity, for 1:1 mixtures IC50 refers to known antiviral drugs
# Sequence of HSV thymidine kinase (P0DTH5 whole entry, looked up): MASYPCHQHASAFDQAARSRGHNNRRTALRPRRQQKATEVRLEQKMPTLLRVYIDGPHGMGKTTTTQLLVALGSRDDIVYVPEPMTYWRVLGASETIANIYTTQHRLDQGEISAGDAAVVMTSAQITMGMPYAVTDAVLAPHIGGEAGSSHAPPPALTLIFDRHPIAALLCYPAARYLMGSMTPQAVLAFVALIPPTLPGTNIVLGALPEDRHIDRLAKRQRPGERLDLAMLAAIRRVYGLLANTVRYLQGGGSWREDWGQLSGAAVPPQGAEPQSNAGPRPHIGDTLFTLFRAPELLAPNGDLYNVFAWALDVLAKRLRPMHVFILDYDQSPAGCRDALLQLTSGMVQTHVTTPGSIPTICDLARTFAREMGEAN
structure (smiles),measurement,setting,value
"Nc1ncnc2c1ncn2[C@@H]1O[C@H](COP(=O)(O)O)[C@@H](OP(=O)(O)COCCn2cnc3ncnc(N)c32)[C@H]1O [Compound 24, 9-[5′-O-(phosphono)-β-D-furanosyl]adenine-3′-[[1-(adenin-7-yl-ethoxy)methyl]phosphonate]]",solubility at 20 h,[1]; 0.10 m phosphate buffer,3080 µg/mL
same,yield of 5′-dephosphorylated product with snake venom phosphodiesterase,[2],about 80%
same,IC50,[3],7 µg/mL
same,IC50,[4],4.2 µg/mL
same,IC50,"HIV-1 (IIIB); MT4, read-out: IC50 HIV-1 (IIIB)",5.9 µg/mL
same,logP at […],[5]; 1-octanol/phosphate buffer,0.12
same,Vmax less than that of ara-A 3,[6]; ADA substrate,about 95%
same,type of ADA inhibition in words,[6]; ara-A used as substrate,competitive inhibition
same,rel. Vmax,[6],9.78 × 10^−2
same,Ki,[6]; inhibition of ADA with ara-A 3 as substrate,99.7 µM
same,mean day of animal death,HSV-1 (KOS); 100 mg/kg/day i.p.,19.5 ± 1.2 days
same,mean day of symptom initiation,HSV-1 (KOS); 100 mg/kg/day i.p.,16.0 ± 1.7 days
same,protection against HSV-induced mortality,HSV-1 (KOS); 150 mg/kg dose level i.p.,full protection
same,mean day of animal death,HSV-1 (KOS); 150 mg/kg/day i.p.,>21 days
same,mean day of symptom initiation,HSV-1 (KOS); 150 mg/kg/day i.p.,19.3 ± 1.6 days
same,mean day of animal death,HSV-1 (KOS); 250 mg/kg/day i.p.,>21 days
same,mean day of symptom initiation,HSV-1 (KOS); 250 mg/kg/day i.p.,>21 days
same,responders at 100 mg/kg,HSV-1 (KOS); [13],90%
same,responders at 100 mg/kg,HSV-1 (KOS); [14],70%
same,responders at 150 mg/kg,HSV-1 (KOS); [15],100%
same,responders at 150 mg/kg,HSV-1 (KOS); [16],85%
same,responders at 250 mg/kg,HSV-1 (KOS); [17],100%
same,responders at 250 mg/kg,HSV-1 (KOS); [18],100%
same,IC50,"[7]; Human betaherpesvirus 5, AD169, Vero",11 µg/mL
same,IC50,[8],17 µg/mL
same,IC50,"HIV-2 (LAV-2); Human immunodeficiency virus 2, MT4, read-out: IC50 HIV-2 (LAV-2)",6.4 µg/mL
"COC1=C(OC)/C(=C/COP(=O)(O)COCCn2cnc3c(N)ncnc32)OC1=O [Compound 28, [1-(Adenin-9-yl-ethoxy)methyl]phosphono-6-yl-(Z)-4-(ethylidene)-2,3-dimethoxy-Δ^a,b-butenolide]",solubility at 20 h,[1]; phosphate buffer,7420 µg/mL
same,mean day of animal death,MSV; 10 mg/kg/day i.p.,18.9 ± 1.8 days
same,percentage of MSV-infected mice alive at day 21 postinfection,MSV; 10 mg/kg/day i.p.,(97%)
same,mean day of tumor initiation,MSV; 10 mg/kg/day i.p.,14.0 ± 2.1 days
same,mean day of animal death,MSV; 20 mg/kg/day i.p.,>21 days
same,percentage of MSV-infected mice alive at day 21 postinfection,MSV; 20 mg/kg/day i.p.,(100%)
same,percentage of MSV-infected mice without tumors at day 21 postinfection,MSV; 20 mg/kg/day i.p.,(80%)
same,mean day of tumor initiation,MSV; 20 mg/kg/day i.p.,17.9 ± 1.7 days
same,mean day of animal death,MSV; 50 mg/kg/day i.p.,>21 days
same,percentage of MSV-infected mice alive at day 21 postinfection,MSV; 50 mg/kg/day i.p.,(100%)
same,percentage of MSV-infected mice without tumors at day 21 postinfection,MSV; 50 mg/kg/day i.p.,(95%)
same,mean day of tumor initiation,MSV; 50 mg/kg/day i.p.,18.4 ± 1.4 days
same,weight loss in surviving animals,"MSV; MSV-infected NMRI mice, i.p.",about 2 g
same,"CEM cell, concentration reducing the number of viable uninfected cells by 50%",CEM cells,280 µg/mL
same,"HeLa cell, concentration causing microscopically visible change or disruption in about 50% of the cell sheet",HeLa cells; human,139 µg/mL
same,IC50,[3],3.7 µg/mL
same,IC50,[4],2.4 µg/mL
same,"MT4 cell, concentration reducing the number of viable uninfected cells by 50%",MT4 cells,265 µg/mL
same,IC50,"HIV-1 (IIIB); MT4 cells, average of duplicates, read-out: IC50 HIV-1 (IIIB)",1.4 µg/mL
same,logP at […],[5]; 1-octanol/water (0.10 M phosphate buffer),2.09
same,"Vero cell, concentration causing microscopically visible change or disruption in about 50% of the cell sheet",Vero cells; African green monkey,170 µg/mL
same,ADA substrate / inhibitor property in words,[6],neither a good substrate nor an inhibitor
same,IC50 TK+VZV (YS),[9],2.0 µg/mL
same,protection against HSV-induced mortality,HSV-1 (KOS); 100 mg/kg i.p.,same level of protection
same,mean day of animal death,HSV-1 (KOS); 100 mg/kg/day i.p.,>21 days
same,mean day of symptom initiation,HSV-1 (KOS); 100 mg/kg/day i.p.,>21 days
same,mean day of animal death,HSV-1 (KOS); 150 mg/kg/day i.p.,>21 days
same,mean day of symptom initiation,HSV-1 (KOS); 150 mg/kg/day i.p.,>21 days
same,mean day of animal death,HSV-1 (KOS); 250 mg/kg/day i.p.,>21 days
same,mean day of symptom initiation,HSV-1 (KOS); 250 mg/kg/day i.p.,>21 days
same,responders at 100 mg/kg,HSV-1 (KOS); [13],100%
same,responders at 100 mg/kg,HSV-1 (KOS); [14],100%
same,responders at 150 mg/kg,HSV-1 (KOS); [15],100%
same,responders at 150 mg/kg,HSV-1 (KOS); [16],100%
same,responders at 250 mg/kg,HSV-1 (KOS); [17],100%
same,responders at 250 mg/kg,HSV-1 (KOS); [18],100%
same,IC50,"[7]; Human betaherpesvirus 5, AD169, Vero cell culture, 50% inhibition of cytopathogenicity, for 1:1 mixtures IC50 refers to known antiviral drugs",5.4 µg/mL
same,LD50,"[10]; NMRI, mouse, in vivo, ip",710 mg/kg
same,level up to which no toxicity was shown,"[10]; mice, intraperitoneal",400 mg/kg
same,IC50,"[8]; CEM cells, average of duplicates",0.93 µg/mL
same,IC50,"HIV-2 (LAV-2); Human immunodeficiency virus 2, MT4 cells, average of duplicates, read-out: IC50 HIV-2 (LAV-2)",1 µg/mL
"Nc1ncnc2c1ncn2[C@@H]1O[C@H](CO)[C@@H](O)[C@@H]1O [ara A 3, 9-(β-D-arabinofaranosyl)adenine, reference compound]",solubility in water,"[1]; phosphate buffer 0.10 M, pH 6.8, agitated 20 h",0.48 mg/mL
same,"HeLa cell, concentration causing microscopically visible change or disruption in about 50% of the cell sheet",HeLa cells,73 µg/mL
same,IC50 HSV-1 (KOS),"[3]; Vero cell culture, 50% inhibition of virus-induced cytopathogenicity, mean of duplicates, for 1:1 (W/W) mixtures IC50 refers to known antiviral drugs",8.8 µg/mL
same,IC50 HSV-2 (G),[11],>128 µg/mL
same,IC50 TK−VZV (YS/R),[4]; [19],>128 µg/mL
same,log P (1-octanol/water),"[5]; P = [substrate]1-octanol/[substrate]H2O, phosphate buffer 0.10 M",−0.50
same,"Vero cell, concentration causing microscopically visible change or disruption in about 50% of the cell sheet",Vero cells,89 µg/mL
same,rel. Vmax,[6],1.0
same,IC50 TK+VZV (YS),[9]; [19],>128 µg/mL
same,IC50 HCMV (AD-169),[7]; [19],27 µg/mL
same,Km,"[12]; apparent Km, 37° C., pH 7.5",13 mM
same,"rel. Vmax, Vero cell thymidine kinase",[12]; relative to thymidine = 1.0 × 10^2,<3.0
same,"rel. Vmax, HSV thymidine kinase",HSV thymidine kinase,<3.0
same,effect on the rate of phosphorylation of acyclovir 2 in words,HSV thymidine kinase; mixture with acyclovir 2 (w/w=1:1),did not induce any increase

# Reference: US6825348B2, “Antiviral compounds” (Academia Sinica, priority 2002, dated 2004)
